The values that follow are results of earlier work, collected in publication PMC7791840, “The R-enantiomer of ketorolac reduces ovarian cancer tumor burden in vivo” (BMC Cancer, 2021).

Series [1] relates to Rac1. More on the design: method as in earlier work. The conditions noted are these: cell-based assays, ovarian tumor cells; ref 23 (R-ketorolac), 27 (S-ketorolac); cited from earlier work.
For series [2], the system named is Cdc42. Also on record: method as in earlier work. The conditions noted are these: cell-based assays, ovarian tumor cells; ref 23 (R-ketorolac), 27 (S-ketorolac); cited from earlier work.
Series [3] relates to COX-1. Also on record: method as in PMID 26558612, PMID 10027870. To be noted: cited from earlier work.
Series [4] relates to COX-2. More on the design: method as in PMID 26558612, PMID 10027870. To be noted: cited from earlier work.
On the set-up of series [5]: method as in PMID 8809637. The conditions noted are these: mice; cited from earlier work.
The subject of series [6] is HEY8 ovarian cancer xenografts. More on the design: method as in PMID 25595279. The conditions noted are these: cited from earlier work.

By IC50 is commonly meant the concentration at which inhibition is half-maximal. Take `O=C(c1ccccc1)c1ccc2n1CC[C@@H]2C(=O)O` [S-ketorolac]: the half-inhibitory concentration (IC50) in series [1] was > 100000 nM; in series [2], > 100000 nM; in series [3] it was 460 nM; in series [4], 1460 nM. The “Conversion of S-enantiomer to R-enantiomer” value in series [5] was “significantly converted to the R-enantiomer in mice”.

Regarding `O=P(O)(O)C(O)(Cn1ccnc1)P(=O)(O)O` [zoledronic acid, Zoledronic acid], in series [6], the “Number of tumor nodules” value is “decreased” and the Tumor weight entry is “decreased”.
